From patent publication US8058442B2 (Technion Research and Development Foundation Ltd., priority 2002, dated 2011)
Where a name gives a salt, the structure may show the parent alone.

How the values were obtained:
[1] = system: PC12 cells; experiment: Neuroprotection of PC12 cells against serum-deprivation induced apoptosis (MTT test); format: cell-based, rat
Procedure: Rat PC12 cells, originated from rat pheochromocytoma, were grown at 37° C., in a humid 5% CO2, 95% air environment, in a growth medium containing Dulbecco's modified Eagle's Medium (DMEM, GIBCO, BRL) supplemented with glucose (1 mg/1 ml), 5% fetal calf serum, 10% horse serum, and 1% of a mixture of streptomycin/penicillin. On confluence, the culture was removed and the cells were detached by vigorous washing, centrifuged at 200 g for 5 min and resuspended in DMEM with full serum content. 0.5×10^4 cells/well were placed in microtiter plates (96 wells) precoated with collagen (10 μg/cm^2 were allowed to attach for 24 h before treatment).
Twenty-four hours after attachment of the PC12 cells as described in (g), the medium was replaced with DMEM containing 0.1% BSA. The test compounds were added to the cells after 1 h of incubation. After 24 h incubation, the cells were subjected to MTT test as previously described (Gassen et al., 1998). The absorption was determined in a Perkin-Elmer Dual Wavelength Eliza-Reader at λ=570/650 nm after automatic subtraction of background readings. The results are expressed as percentage of the untreated control.
PC12 cells were grown in serum-free medium alone or in serum-free medium with different concentration of the chelators VK-28, M32, HLA20 and Rasagiline. After 24 h incubation, the cells were subjected to MTT test.
Cell viability was expressed as a percentage of cells cultured in medium supplemented with serum, which served as the control group and was designated as 100%. […] Experimental data are shown as mean±SD (r=6).

[2] = molecular target: T1, rat brain MAO-A (Rattus norvegicus, UniProt P21396); experiment: In vitro inhibition of rat brain MAO-A; format: biochemical; conditions: rat brain homogenate
T1 construct: from tissue; host or cells: rat brain homogenate, 4500 g pellet
T1 sequence (P21396 1-526): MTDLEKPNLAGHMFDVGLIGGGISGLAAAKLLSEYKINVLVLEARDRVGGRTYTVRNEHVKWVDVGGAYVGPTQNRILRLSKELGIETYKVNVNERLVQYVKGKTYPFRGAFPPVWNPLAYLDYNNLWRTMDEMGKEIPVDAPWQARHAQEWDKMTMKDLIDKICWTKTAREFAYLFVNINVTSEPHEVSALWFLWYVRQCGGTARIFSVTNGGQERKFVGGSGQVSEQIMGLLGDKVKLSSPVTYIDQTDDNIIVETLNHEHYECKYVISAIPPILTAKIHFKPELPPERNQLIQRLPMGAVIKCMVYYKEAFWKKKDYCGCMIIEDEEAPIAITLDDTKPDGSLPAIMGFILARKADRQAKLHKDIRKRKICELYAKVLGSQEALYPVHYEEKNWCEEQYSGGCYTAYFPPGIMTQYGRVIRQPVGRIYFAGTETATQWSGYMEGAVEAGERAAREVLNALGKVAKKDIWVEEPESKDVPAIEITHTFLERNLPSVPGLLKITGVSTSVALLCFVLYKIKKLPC
Procedure: (§1) Rats were decapitated and the brains were quickly taken into a weighted ice-cold sucrose buffer (0.32 M), and their weights were determined. All subsequent procedures were performed at 0-4° C. The brains were homogenized in 0.25 M sucrose (one part tissue to 20 parts sucrose) in a Teflon glass homogenizer followed by the addition of sucrose buffer to a final concentration of 10% homogenate. The homogenates were centrifuged at 600 g for 15 min. The supernatant fraction was taken out and centrifuged at 4500 g for 30 min, the pellet was diluted in 0.32 M sucrose buffer and kept frozen for later assaying of MAO. Protein concentration was determined with Bradford reagent at 595 nm, using bovine serum albumin as a standard.
(§2) The test compound was added to a suitable dilution of the enzyme preparation (70 μg protein for MAO-B and 150 μg MAO-A assay) in 0.05 M phosphate buffer (pH 7.4). The mixture was incubated together with […], a specific inhibitor of MAO-B (for determination of MAO-A) or […] clorgylin, a specific inhibitor of MAO-A (for determination of MAO-B). Incubation was carried for 1 h at 37° C. before addition of ^14C-5-hydroxytryptamine binoxalate ([…]) for determination of MAO-A, or ^14C-phenylethylamine 100 µM for determination of MAO-B, and incubation continued for 30 min or 20 min, respectively. The reaction was stopped with 2 M ice-cold citric acid, and the metabolites were extracted and determined by liquid-scintillation counting in cpm units.
(§3) MAO-A and MAO-B activities were determined in rat brain homogenate in vitro following incubation with varying concentrations of the test compounds.
In another experiment, the in vitro inhibitory activity of HLA20, M32, VK-28, M30, M31, and propargylamine (P) was tested against rat brain MAO-A. The test compounds were added to buffer containing 10^−7M deprenyl and were incubated with the tissue homogenate for 60 min at 37° C. before addition of ^14C-5-hydroxytryptamine. MAO-A activity in presence of the test compound was expressed as a percentage of that in control samples.

[3] = molecular target: T2, rat brain MAO-B (Rattus norvegicus, UniProt P19643); experiment: In vitro inhibition of rat brain MAO-B; format: biochemical; conditions: 100 μM; read-out: inhibition of MAO-B
T2 construct: from tissue; host or cells: rat brain homogenate, 4500 g pellet
T2 sequence (P19643 1-520): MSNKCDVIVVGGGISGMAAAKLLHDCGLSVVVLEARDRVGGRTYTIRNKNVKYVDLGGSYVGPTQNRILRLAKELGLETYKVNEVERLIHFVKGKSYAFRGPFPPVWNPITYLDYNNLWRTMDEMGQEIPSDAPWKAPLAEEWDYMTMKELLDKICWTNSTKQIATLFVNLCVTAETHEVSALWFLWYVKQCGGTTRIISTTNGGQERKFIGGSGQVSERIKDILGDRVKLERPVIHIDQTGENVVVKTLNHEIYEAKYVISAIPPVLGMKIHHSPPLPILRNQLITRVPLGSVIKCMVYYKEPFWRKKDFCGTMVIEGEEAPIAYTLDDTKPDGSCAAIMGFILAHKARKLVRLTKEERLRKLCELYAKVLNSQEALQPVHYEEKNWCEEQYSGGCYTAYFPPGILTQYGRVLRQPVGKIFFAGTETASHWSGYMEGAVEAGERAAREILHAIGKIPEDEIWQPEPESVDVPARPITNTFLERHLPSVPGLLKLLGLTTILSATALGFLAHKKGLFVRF
Procedure: as §1, §2, §3
MAO-B activity in presence of the test compound was expressed as a percentage of that in control samples.

| Compound | melting point | number of survival cells (cell viability, % of cells cultured with serum) ([1]; 0.1 μM chelator, serum-free medium, 24 h, serum-free control 38%) [%] | change in the protection against PC12 cell death induced by serum withdrawal ([1]; 1 or 10 μM, compared with 0.1 μM) | effect on MAO-A [2] | inhibition at 100 µM [3] [%] |
| --- | --- | --- | --- | --- | --- |
| NC(Cc1ccc(O)c2ncccc12)C(=O)O (racemic) (as salt: salt) [HLM8, DL-3-(8-hydroxyquinolin-5-yl)alanine] | 194 °C (dec.) | – | – | – | – |
| CCOC(=O)C(CS)NCc1ccc(O)c2ncccc12 (stereo not drawn) [Compound M32] | – | 59 | no significant change in the protection | almost no effect | 17.2 |
| CCOC(=O)C(C)(NC(=O)Cc1ccc(O)c2ncccc12)C(=O)OCC [HLM7, diethyl 8-hydroxyquinolin-5-yl-methyl-acetamidomalonate] | 153 to 154 °C | – | – | – | – |
